Measurements: the supplement of paper PMC11451515

System: P12-Ichikawa
Assay: cell viability relative to DMSO control; higher = less cytotoxic
Details: 48 h
Outline: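 Viability values are per-plate percentages of DMSO wells, with background from cell-free wells. Library compounds in DMSO were pin-dosed, in an 11-point threefold series from 47 μM to 0.79 nM, onto NOMO1 or SEM (500 cells/well) or P12-Ichikawa (1000 cells/well) leukemia cells in 1536-well plates (5 μl). Those cells had been adapted for at least four passages in each medium, and CellTiter-Glo One luminescence was read after 48 h at 37°C.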

[1] = HPLM + 10% dialyzed FBS, 0.000781 µM
[2] = HPLM + 10% dialyzed FBS, 0.00234 µM
[3] = HPLM + 10% dialyzed FBS, 0.00702 µM
[4] = HPLM + 10% dialyzed FBS, 0.0211 µM
[5] = HPLM + 10% dialyzed FBS, 0.0632 µM
[6] = HPLM + 10% dialyzed FBS, 0.19 µM
[7] = HPLM + 10% dialyzed FBS, 0.569 µM
[8] = HPLM + 10% dialyzed FBS, 1.71 µM
[9] = HPLM + 10% dialyzed FBS, 5.12 µM
[10] = HPLM + 10% dialyzed FBS, 15.4 µM
[11] = HPLM + 10% dialyzed FBS, 46.1 µM
[12] = RPMI 5 mM glucose + 10% FBS, 0.000781 µM
[13] = RPMI 5 mM glucose + 10% FBS, 0.00234 µM
[14] = RPMI 5 mM glucose + 10% FBS, 0.00702 µM
[15] = RPMI 5 mM glucose + 10% FBS, 0.0211 µM
[16] = RPMI 5 mM glucose + 10% FBS, 0.0632 µM
[17] = RPMI 5 mM glucose + 10% FBS, 0.19 µM
[18] = RPMI 5 mM glucose + 10% FBS, 0.569 µM
[19] = RPMI 5 mM glucose + 10% FBS, 1.71 µM
[20] = RPMI 5 mM glucose + 10% FBS, 5.12 µM
[21] = RPMI 5 mM glucose + 10% FBS, 15.4 µM
[22] = RPMI 5 mM glucose + 10% FBS, 46.1 µM
[23] = RPMI 5 mM glucose + 10% dialyzed FBS, 0.000781 µM
[24] = RPMI 5 mM glucose + 10% dialyzed FBS, 0.00234 µM
[25] = RPMI 5 mM glucose + 10% dialyzed FBS, 0.00702 µM
[26] = RPMI 5 mM glucose + 10% dialyzed FBS, 0.0211 µM
[27] = RPMI 5 mM glucose + 10% dialyzed FBS, 0.0632 µM
[28] = RPMI 5 mM glucose + 10% dialyzed FBS, 0.19 µM
[29] = RPMI 5 mM glucose + 10% dialyzed FBS, 0.569 µM
[30] = RPMI 5 mM glucose + 10% dialyzed FBS, 1.71 µM
[31] = RPMI 5 mM glucose + 10% dialyzed FBS, 5.12 µM
[32] = RPMI 5 mM glucose + 10% dialyzed FBS, 15.4 µM
[33] = RPMI 5 mM glucose + 10% dialyzed FBS, 46.1 µM

Structure (SMILES) | cell viability [1] [%] | cell viability [2] [%] | cell viability [3] [%] | cell viability [4] [%] | cell viability [5] [%] | cell viability [6] [%] | cell viability [7] [%] | cell viability [8] [%] | cell viability [9] [%] | cell viability [10] [%] | cell viability [11] [%] | cell viability [12] [%] | cell viability [13] [%] | cell viability [14] [%] | cell viability [15] [%] | cell viability [16] [%] | cell viability [17] [%] | cell viability [18] [%] | cell viability [19] [%] | cell viability [20] [%] | cell viability [21] [%] | cell viability [22] [%] | cell viability [23] [%] | cell viability [24] [%] | cell viability [25] [%] | cell viability [26] [%] | cell viability [27] [%] | cell viability [28] [%] | cell viability [29] [%] | cell viability [30] [%] | cell viability [31] [%] | cell viability [32] [%] | cell viability [33] [%]
CCC[S+](=O)([O-])Nc1ccc(F)c(C(=O)c2c[nH]c3ncc(Cl)cc23)c1F | 110 | 116 | 109 | 119 | 112 | 110 | 99.8 | 108 | 103 | 65.7 | 44.2 | 115 | 115 | 121 | 116 | 114 | 115 | 123 | 113 | 113 | 85.6 | 54.7 | 118 | 118 | 119 | 118 | 120 | 115 | 111 | 110 | 99.8 | 72.3 | 44.2
CCn1c(-c2nonc2N)nc2c(C#CC(C)(C)O)ncc(OC[C@H]3CCCNC3)c21 | 91.1 | 94 | 89 | 84.1 | 73.1 | 74.6 | 69.9 | 66.3 | 65.8 | 61.4 | 58.7 | 77 | 86.2 | 76.2 | 70.6 | 53.1 | 56.4 | 46.2 | 52.7 | 45.1 | 45.9 | 46.7 | 81.2 | 87.4 | 80.5 | 77.3 | 66.5 | 66.7 | 58.9 | 56.6 | 48.8 | 50.2 | 49.9
CCN(CCO)CCCOc1ccc2c(Nc3cc(CC(=O)Nc4cccc(F)c4)[nH]n3)ncnc2c1 | 99.6 | 99.8 | 107 | 109 | 104 | 43.9 | 11.6 | 10.8 | 9.25 | 9.18 | 10.6 | 102 | 110 | 115 | 117 | 108 | 45.4 | 16.7 | 14.1 | 11 | 10.5 | 16.3 | 102 | 112 | 111 | 111 | 114 | 68.6 | 20.7 | 21 | 21.1 | 18.5 | 26.9
CCc1cc(C(N)=S)ccn1 | 116 | 115 | 120 | 126 | 124 | 122 | 127 | 114 | 104 | 93.7 | 80.2 | 108 | 121 | 118 | 115 | 122 | 134 | 119 | 128 | 114 | 103 | 104 | 111 | 124 | 119 | 120 | 121 | 129 | 122 | 120 | 104 | 95.9 | 86.5
CC(C)(F)C[C@H](N[C@@H](c1ccc(-c2ccc([S+](C)(=O)[O-])cc2)cc1)C(F)(F)F)C(=O)NC1(C#N)CC1 | 106 | 120 | 111 | 112 | 115 | 117 | 124 | 115 | 112 | 110 | 98.7 | 99.9 | 114 | 111 | 121 | 120 | 111 | 112 | 109 | 113 | 106 | 98.7 | 93.8 | 115 | 106 | 106 | 121 | 111 | 111 | 111 | 109 | 101 | 99.5
OC1=CC2=C(C=C1)C(=O)\C(=C(O2)\C3=CC(=C(O)C=C3)O)O | 102 | 105 | 98.2 | 91.1 | 94 | 87.7 | 89.5 | 92.4 | 86 | 82.4 | 44 | 94.1 | 94.7 | 97.5 | 87 | 91.2 | 96.5 | 88.8 | 85.5 | 86 | 88.1 | 32.2 | 86.5 | 91.1 | 88 | 87.2 | 97.6 | 88.1 | 85 | 84.8 | 90.4 | 79.7 | 32.5
CCCC(C)(COC(N)=O)COC(=O)NC(C)C (centres undefined) | 115 | 117 | 114 | 130 | 127 | 123 | 121 | 119 | 129 | 135 | 119 | – | – | – | – | – | – | – | – | – | – | – | – | – | – | – | – | – | – | – | – | – | –
O=C([O-])C[C@H](O)C[C@H](O)/C=C/c1c(C2CC2)nc2ccccc2c1-c1ccc(F)cc1 | 107 | 111 | 115 | 110 | 117 | 114 | 110 | 103 | 69.3 | 49.1 | 26.2 | 110 | 117 | 116 | 113 | 124 | 116 | 105 | 87.9 | 52.3 | 19.5 | 14.7 | 113 | 114 | 113 | 107 | 119 | 116 | 115 | 93.6 | 58.2 | 36.9 | 19.3
Cc1c(-c2cccc3c(CCCOc4cccc5ccccc45)c(C(=O)O)n(Cc4cccnc4)c23)c(COc2ccc(N3CCN([S+](=O)([O-])N(C)C)CC3)cc2)nn1C | 96 | 94.3 | 87.4 | 93.2 | 97.4 | 91.6 | 88.5 | 85.8 | 91 | 80.3 | 71.6 | 92.1 | 87.7 | 94.1 | 85.6 | 87.2 | 92.7 | 84.2 | 88 | 91.2 | 87 | 74 | 91.7 | 93.4 | 91.4 | 95.3 | 93 | 88.2 | 82.8 | 90.8 | 81.3 | 82.4 | 67
CN1CCN(c2c(F)cc3c(=O)c(C(=O)O)cn(CCF)c3c2F)CC1 | 99.8 | 101 | 106 | 112 | 112 | 111 | 111 | 115 | 121 | 120 | 108 | 101 | 104 | 95.5 | 108 | 109 | 121 | 107 | 108 | 103 | 112 | 111 | 95.9 | 104 | 110 | 107 | 110 | 107 | 110 | 108 | 119 | 115 | 116
Cc1ccccc1C(OCCN(C)C)c1ccccc1 (centres undefined) | 106 | 118 | 117 | 110 | 113 | 118 | 107 | 129 | 127 | 123 | 123 | – | – | – | – | – | – | – | – | – | – | – | 114 | 126 | 118 | 123 | 121 | 113 | 124 | 131 | 124 | 128 | 116
CC(=O)OC[C@H]1O[C@@H]([S-])[C@H](OC(C)=O)[C@@H](OC(C)=O)[C@@H]1OC(C)=O.CCP(CC)CC.[Au+] | 89.2 | 88.1 | 91.2 | 99.2 | 94.1 | 102 | 98.6 | 94.5 | 71.7 | 6.24 | 6.03 | 86.8 | 89.2 | 90.6 | 93.1 | 82.2 | 90.6 | 93.4 | 89.3 | 14.8 | 5.1 | 4.94 | 87.8 | 84.1 | 81.6 | 92.7 | 79.7 | 87.6 | 91.9 | 78.2 | 6.72 | 5.18 | 5.56
CC(NC(C)(C)C)C(=O)c1cccc(Cl)c1 (centres undefined) | 114 | 113 | 117 | 118 | 117 | 111 | 120 | 124 | 122 | 115 | 115 | – | – | – | – | – | – | – | – | – | – | – | 114 | 127 | 119 | 123 | 123 | 128 | 125 | 124 | 121 | 118 | 108
NC[C@@H]1O[C@H](O[C@H]2[C@@H](O)[C@H](O[C@@H]3[C@@H](O)[C@H](N)C[C@H](N)[C@H]3O[C@H]3O[C@H](CN)[C@@H](O)[C@H](O)[C@H]3N)O[C@@H]2CO)[C@H](N)[C@@H](O)[C@@H]1O.O=S(=O)(O)O.O=S(=O)(O)O.O=S(=O)(O)O | 108 | 96.4 | 108 | 107 | 105 | 107 | 103 | 103 | 107 | 99.5 | 98.3 | 102 | 97.9 | 104 | 98 | 103 | 97.6 | 101 | 98 | 100 | 96.4 | 96 | 105 | 100 | 105 | 103 | 96.8 | 102 | 102 | 93.3 | 94.6 | 97.9 | 93.4
COc1cccc2c1C(=O)c1c(O)c3c(c(O)c1C2=O)C[C@@](O)(C(=O)CO)C[C@@H]3O[C@H]1C[C@H](N)[C@H](O[C@H]2CCCCO2)[C@H](C)O1 | 122 | 127 | 123 | 123 | 115 | 125 | 121 | 92.3 | 9.81 | 113 | 99 | 122 | 122 | 120 | 127 | 117 | 122 | 106 | 70.2 | 6.23 | 108 | 94.6 | 125 | 121 | 102 | 128 | 117 | 114 | 97.5 | 71.5 | 7.42 | 93 | 84.7
Cc1cc(OCCC[S+](C)(=O)[O-])cc(C)c1-c1cccc(COc2ccc3c(c2)OC[C@H]3CC(=O)O)c1 | 100 | 104 | 98.1 | 108 | 97 | 94.8 | 97.4 | 93.6 | 91.6 | 94.2 | 68.6 | 105 | 106 | 110 | 103 | 101 | 100 | 98.1 | 84.2 | 84.9 | 86.8 | 49.3 | 93.1 | 96.2 | 102 | 98.5 | 96.1 | 97.7 | 91.1 | 84.3 | 84.7 | 82.4 | 46.1
